Assays:
[1] = target: T1, β5 subunit of the human constitutive proteasome (CPS) (Homo sapiens, UniProt P28074); experiment: β5 inhibition assay, human constitutive proteasome (Suc-LLVY-AMC); assay type: biochemical; conditions: IC50 class, Suc-LLVY-AMC substrate
T1 construct: purchased Boston Biochem E-360
Protocol: The enzymatic activity of the β5 subunit of the human constitutive proteasome (CPS) is analyzed. In another assay, which differs from the assay of the human constitutive proteasome only in using the human immunoproteasome (IPS) the enzymatic activity of the β5 subunit of the human immunoproteasome (IPS) is analyzed. […] Inhibition is indicated as IC50 [nM] (“-”=not measured).

[2] = target: T2, β5 subunit of the human immunoproteasome (IPS) (Homo sapiens, UniProt P28062); experiment: β5 inhibition assay, human immunoproteasome (Suc-LLVY-AMC); assay type: biochemical; conditions: IC50 class, Suc-LLVY-AMC substrate
T2 construct: purchased Boston Biochem E-370
Outline: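 Human immunoproteasome (1 nM final) was preincubated 10 min at RT with compound in 100 mM HEPES pH 7.5, 50 mM NaCl, 0.02% SDS, 1 mM DTT. Suc-LLVY-AMC (22.6 μM final) was then added for 4 h at RT in the dark. After stopping with 1 μM bortezomib, AMC fluorescence was read (ex 355/em 460 nm).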

[3] = test system: A549 (human lung carcinoma cell line); experiment: Glo assay of A549 cells (Table 3; ProteasomeGlo plating scheme); assay type: cell-based; conditions: Homo sapiens; A549 cells; read-out: PGLo A549
Outline: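 Luminescent read-out of cellular chymotrypsin-like proteasome activity: cells exposed to compound 105 min at 37° C., 5% CO2, then given Suc-LLVY-Glo reagent, shaken 2-5 min and kept dark 10-15 min before reading. Values are IC50 [nM].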

[4] = test system: Hs 746T (human gastric carcinoma cell line); experiment: 48 hr CTG viability assay, Hs 746T; assay type: cell-based; conditions: Hs746T, 48 hr CTG, read-out: Hs 746T IC50
Outline: (§1)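 Growth inhibition by compound over 48 h; IC50 (nM) derived from duplicate CellTiter-Glo luminescence readings across 0.0015–10 uM.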

[5] = test system: MM1 S (B lymphoblast cell line); experiment: 48 hr CTG viability assay, MM1S; assay type: cell-based; conditions: Homo sapiens, 48 hr CTG, read-out: MM1S IC50
Outline: as §1

[6] = test system: RPMI 8226 (B lymphocyte cell line, multiple myeloma); experiment: 48 hr CTG viability assay, RPMI 8226; assay type: cell-based; conditions: Homo sapiens, RPMI-8226; 48 hr CTG; read-out: RPMI-8226 IC50
Outline: as §1

IC50 [1] [nM]	IC50 [2] [nM]	IC50 [3] [nM]	IC50 [4] [nM]	IC50 [5] [nM]	IC50 [6] [nM]	SMILES
< 100	< 100	< 100	< 100	< 100	< 100	Cc1ccc2cc1CNC(=O)[C@H](CCc1ccccc1)NC(=O)[C@@H](NC(=O)C1CCC3(CCOCC3)CC1)CC(=O)N1CCCC(CCO2)C1 (stereo partly drawn) [Compound 584, N-((9S,12S)-5^4-methyl-8,11,14-trioxo-9-phenethyl-4-oxa-7,10-diaza-1(3,1)-piperidina-5(1,3)-benzenacyclotetradecaphane-12-yl)-3-oxaspiro[5.5]undecane-9-carboxamide]
< 100	< 100	< 100	< 100	< 100	< 100	Cc1ccc2cc1CNC(=O)[C@H](CCc1ccccc1)NC(=O)[C@@H](NC(=O)CCNCCC1CC1)CC(=O)N1CCCC(CCO2)C1 (stereo partly drawn) [Compound 679, 3-((2-cyclopropylethyl)amino)-N-((9S,12S)-5^4-methyl-8,11,14-trioxo-9-phenethyl-4-oxa-7,10-diaza-1(3,1)-piperidina-5(1,3)-benzenacyclotetradecaphane-12-yl)propanamide]
< 100	< 100	< 100	< 100	< 100	< 100	COc1ccccc1OCCC(=O)N[C@H]1CC(=O)N2CCCC(CCOc3ccc(C)c(c3)CNC(=O)[C@H](CCc3ccccc3)NC1=O)C2 (stereo partly drawn) [Compound 588, 3-(2-methoxyphenoxy)-N-((9S,12S)-5^4-methyl-8,11,14-trioxo-9-phenethyl-4-oxa-7,10-diaza-1(3,1)-piperidina-5(1,3)-benzenacyclotetradecaphane-12-yl)propanamide]
< 100	< 100	100 to 500	< 100	< 100	100 to 500	Cc1ccc2cc1CNC(=O)[C@H](CCc1ccccc1)NC(=O)[C@@H](NC(=O)C1CC3(CNC3)C1)CC(=O)N1CCCC(CCO2)C1 (stereo partly drawn) [Compound 721, N-((9S,12S)-5^4-methyl-8,11,14-trioxo-9-phenethyl-4-oxa-7,10-diaza-1(3,1)-piperidina-5(1,3)-benzenacyclotetradecaphane-12-yl)-2-azaspiro[3.3]heptane-6-carboxamide]
< 100	< 100	< 100	< 100	< 100	< 100	Cc1ccc2cc1CNC(=O)[C@H](CCc1ccccc1)NC(=O)[C@@H](NC(=O)CCOCC1CCC1)CC(=O)N1CCCC(CCO2)C1 (stereo partly drawn) [Compound 628, 3-(cyclobutylmethoxy)-N-((9S,12S)-5^4-methyl-8,11,14-trioxo-9-phenethyl-4-oxa-7,10-diaza-1(3,1)-piperidina-5(1,3)-benzenacyclotetradecaphane-12-yl)propanamide]
< 100	< 100	< 100	100 to 500	< 100	< 100	Cc1ccc2cc1CNC(=O)[C@H](CCc1ccccc1)NC(=O)[C@@H](NC(=O)N1CCNCC1)CC(=O)N1CCCC(CCO2)C1 (stereo partly drawn) [Compound 716, N-((9S,12S)-5^4-methyl-8,11,14-trioxo-9-phenethyl-4-oxa-7,10-diaza-1(3,1)-piperidina-5(1,3)-benzenacyclotetradecaphane-12-yl)piperazine-1-carboxamide]

SMILES	IC50 [1] [nM]	IC50 [2] [nM]	IC50 [3] [nM]	IC50 [4] [nM]	IC50 [5] [nM]	IC50 [6] [nM]
Cc1ccc2cc1CNC(=O)[C@H](CCc1ccccc1)NC(=O)[C@@H](NC(=O)CCOC1CCC1)CC(=O)N1CCCC(CCO2)C1 (stereo partly drawn) [Compound 595, 3-cyclobutoxy-N-((9S,12S)-5^4-methyl-8,11,14-trioxo-9-phenethyl-4-oxa-7,10-diaza-1(3,1)-piperidina-5(1,3)-benzenacyclotetradecaphane-12-yl)propanamide]	< 100	< 100	< 100	< 100	< 100	< 100
